In ChEMBL document CHEMBL3120147, “Synthesis and in vitro urease inhibitory activity of N,N'-disubstituted thioureas” (Eur J Med Chem, 2014):

Legend:
[1] = biological target: T1, Urease (Canavalia ensiformis, UniProt P07374); test: Inhibition of jack bean urease using urea as substrate assessed as ammonia production after 15 mins by indophenol method
[2] = biological target: Urease (Canavalia ensiformis) (UniProt P07374); test: (§1) Non-competitive inhibition of jack bean urease using urea as substrate assessed as ammonia production after 15 mins by Lineweaver-Burk/Dixon plot analysis
[3] = biological target: T1, Urease; test: as §1
[4] = biological target: Urease (Canavalia ensiformis) (UniProt P07374); test: (§2) Mixed-type inhibition of jack bean urease using urea as substrate assessed as ammonia production after 15 mins by Lineweaver-Burk/Dixon plot analysis
[5] = biological target: T1, Urease; test: as §2
[6] = biological target: Urease (Canavalia ensiformis) (UniProt P07374); test: (§3) Competitive inhibition of jack bean urease using urea as substrate assessed as ammonia production after 15 mins by Lineweaver-Burk/Dixon plot analysis
[7] = biological target: T1, Urease; test: as §3

T1 sequence (P07374 whole entry): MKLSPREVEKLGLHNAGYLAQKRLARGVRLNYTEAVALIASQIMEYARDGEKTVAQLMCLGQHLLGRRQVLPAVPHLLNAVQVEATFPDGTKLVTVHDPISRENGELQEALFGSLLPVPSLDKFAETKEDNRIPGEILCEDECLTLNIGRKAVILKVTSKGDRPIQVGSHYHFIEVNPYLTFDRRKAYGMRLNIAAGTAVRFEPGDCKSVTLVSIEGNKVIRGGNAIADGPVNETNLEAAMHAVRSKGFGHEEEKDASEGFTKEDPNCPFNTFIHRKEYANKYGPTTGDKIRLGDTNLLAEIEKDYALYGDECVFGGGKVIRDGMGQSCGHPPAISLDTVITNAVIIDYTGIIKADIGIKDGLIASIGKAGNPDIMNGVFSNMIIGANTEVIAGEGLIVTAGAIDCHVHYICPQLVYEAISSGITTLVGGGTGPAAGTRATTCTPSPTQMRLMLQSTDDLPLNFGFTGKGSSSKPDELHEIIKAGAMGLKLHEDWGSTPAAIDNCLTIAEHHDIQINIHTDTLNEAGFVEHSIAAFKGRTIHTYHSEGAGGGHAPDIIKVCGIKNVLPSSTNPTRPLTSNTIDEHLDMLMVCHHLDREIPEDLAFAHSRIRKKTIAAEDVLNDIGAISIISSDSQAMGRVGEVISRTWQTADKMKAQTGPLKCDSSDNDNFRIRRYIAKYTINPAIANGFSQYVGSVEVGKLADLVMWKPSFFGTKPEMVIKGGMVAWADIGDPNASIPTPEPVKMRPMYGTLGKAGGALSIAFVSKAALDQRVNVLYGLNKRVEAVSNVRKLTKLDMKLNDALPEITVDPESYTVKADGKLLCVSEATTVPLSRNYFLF
Urease (Canavalia ensiformis), sequence (P07374 whole entry, looked up): as the sequence (P07374 whole entry) above

Row | SMILES | IC50 ([1]; read-out: IC50) | also measured
1 | COc1ccc(OC)c(NC(=S)Nc2ccccc2)c1 | 29.9 µM | –
2 | Cc1ccc(NC(=S)Nc2cccc(Cl)c2)cc1 | 18.6 µM | inhibition [2]: Dose-dependent effect; Ki [3]: 12.1 µM
3 | S=C(Nc1cccc(Cl)c1)Nc1ccc(Cl)cc1Cl | 42.2 µM | –
4 | Cc1nc(NC(=S)Nc2ccccc2)ccc1Br | 82.7 µM | –
5 | S=C(NCc1ccco1)Nc1ccccc1 | 32.4 µM | –
6 | Cc1cccnc1NC(=S)Nc1ccccc1 | 25.3 µM | –
7 | COc1cccc(NC(=S)Nc2cccc(Cl)c2)c1 | 24.5 µM | –
8 | S=C(NCc1cccnc1)Nc1cccc(Cl)c1 | 23 µM | –
9 | Cc1ccc(NC(=S)Nc2cccc(Cl)c2)c(C)c1 | 24.1 µM | –
10 | Cc1ccc(Cl)cc1NC(=S)Nc1cccc(Cl)c1 | 20.1 µM | inhibition [4]: Dose-dependent effect; Ki [5]: 18.5 µM
11 | Fc1ccc(NC(S)=Nc2cccc(Cl)c2)cc1 | – | inhibition [4]: Dose-dependent effect
12 | S=C(NCc1cccnc1)Nc1ccccc1 | 33.5 µM | –
13 | S=C(Nc1cccc(Cl)c1)Nc1ccccc1Cl | 22.2 µM | –
14 | Cc1cccnc1NC(=S)Nc1cccc(Cl)c1 | 15.9 µM | –
15 | S=C(NCc1ccncc1)Nc1cccc(Cl)c1 | 22.7 µM | –
16 | Fc1ccc(NC(=S)Nc2ccccc2)c(F)c1 | 24.3 µM | –
17 | Cc1ccccc1NC(=S)Nc1cccc(Cl)c1 | 34.4 µM | –
18 | Cc1cccc(C)c1NC(=S)Nc1cccc(Cl)c1 | 27.4 µM | –
19 | COc1ccc(NC(=S)Nc2cccc(Cl)c2)cc1 | 29.6 µM | –
20 | S=C(Nc1cccc(Cl)c1)Nc1cccc(Cl)c1Cl | 27.1 µM | –

Row | SMILES | IC50 ([1]; read-out: IC50) | also measured
21 | S=C(Nc1ccccc1)Nc1ccc(Br)cc1 | 34.3 µM | –
22 | S=C(Nc1cccc(Cl)c1)Nc1ccc(Cl)c(Cl)c1 | 11 µM | inhibition [6]: Dose-dependent effect; Ki [7]: 11.7 µM
23 | Fc1ccc(NC(=S)Nc2cccc(Cl)c2)cc1 | 19.1 µM | Ki [5]: 16.8 µM
24 | S=C(Nc1ccccc1)Nc1ncc(Cl)cc1Cl | 37 µM | –
25 | S=C(Nc1cccnc1)Nc1cccc(Cl)c1 | 24.5 µM | –
26 | S=C(Nc1cccc(Cl)c1)Nc1cccnc1Cl | – | IC50 [1]: Not Active
27 | S=C(Nc1ccc(Cl)cc1)Nc1cccc(Cl)c1 | 20.3 µM | inhibition [4]: Dose-dependent effect; Ki [5]: 18.1 µM
28 | S=C(Nc1ccccc1)Nc1ccccn1 | 23.4 µM | –
29 | S=C(Nc1ccccc1)Nc1ccncc1 | 43.9 µM | –
30 | S=C(Nc1ccccc1)Nc1cccnc1Cl | – | IC50 [1]: Not Active
31 | S=C(Nc1ccccc1)Nc1cccc(Br)c1 | 18.3 µM | inhibition [4]: Dose-dependent effect; Ki [5]: 15.6 µM
32 | Fc1ccc(NC(=S)Nc2cccc(Cl)c2)cc1F | 16.3 µM | –
33 | COc1ccccc1NC(=S)Nc1cccc(Cl)c1 | 20.1 µM | –
34 | S=C(Nc1cccc(Cl)c1)Nc1cccc(Cl)c1 | 20 µM | inhibition [4]: Dose-dependent effect; Ki [5]: 18.1 µM
35 | S=C(NCc1ccncc1)Nc1ccccc1 | 32.6 µM | –
36 | Cc1cccc(NC(=S)Nc2cccc(Cl)c2)c1 | 15 µM | inhibition [4]: Dose-dependent effect; Ki [5]: 15.7 µM
37 | Cc1ccc(C)c(NC(=S)Nc2cccc(Cl)c2)c1 | 20.9 µM | inhibition [4]: Dose-dependent effect; Ki [5]: 19.3 µM
38 | NC(N)=S [THIOUREA] | – | Ki [7]: 20 µM
39 | S=C(Nc1cccc(Cl)c1)Nc1c(Cl)cccc1Cl | 41 µM | –
40 | S=C(Nc1ccccc1)Nc1cccnc1 | 8.43 µM | inhibition [6]: Dose-dependent effect; Ki [7]: 8.6 µM
